{
  "source": "ChEMBL document CHEMBL4828717",
  "about": "“Synthetic cajaninstilbene acid derivatives eradicate methicillin-resistant Staphylococcus aureus persisters and biofilms” (Eur J Med Chem, 2021)",
  "key": {"[1]": {"test_system": "Staphylococcus aureus", "assay": "Antibacterial activity against methicillin resistant Staphylococcus aureus ATCC49025 assessed as reduction in microbial growth after 16 to 18 hrs by microbroth dilution method", "type": "functional", "conditions": "time 16-18 hrs"}, "[2]": {"test_system": "Staphylococcus aureus", "assay": "Synergistic antimicrobial activity against Staphylococcus aureus ATCC 43300 assessed as FICI at 1 times MIC after 24 hrs in presence of 32 ug/ml piperacillin by checkerboard assay", "type": "functional"}, "[3]": {"assay": "Toxicity in BALB/c mouse infected with methicillin-resistant Staphylococcus aureus ATCC 43300 assessed as damage in kidney at 50 to 200 mg/kg, sc administered every 24 hrs for 4 days by H&E staining based light microscopic analysis", "type": "organism-based", "conditions": "in vivo, dose 50-200 mg/kg"}, "[4]": {"test_system": "Cell membrane", "assay": "Induction of cell membrane damage in Staphylococcus aureus ATCC 43300 at 2 times MIC after 90 mins by confocal laser scanning microscopy analysis"}, "[5]": {"assay": "Toxicity in BALB/c mouse infected with methicillin-resistant Staphylococcus aureus ATCC 43300 assessed as damage in liver at 50 to 200 mg/kg, sc administered every 24 hrs for 4 days by H&E staining based light microscopic analysis", "type": "organism-based", "conditions": "in vivo, dose 50-200 mg/kg"}, "[6]": {"test_system": "Cell membrane", "assay": "Induction of cell membrane permeabilization in methicillin resistant Staphylococcus aureus ATCC 43300 assessed as fluorescence intensity at 2 times MIC measured after 30 mins by propidium iodide staining based fluorescence assay"}, "[7]": {"test_system": "Escherichia coli", "assay": "Antibacterial activity against Escherichia coli ATCC25922 assessed as reduction in microbial growth after 16 to 18 hrs by microbroth dilution method", "type": "functional", "conditions": "ATCC 25922, time 16-18 hrs"}, "[8]": {"test_system": "Staphylococcus aureus", "assay": "Inhibition of biofilm formation in methicillin-resistant Staphylococcus aureus ATCC 43300 at 1 times MIC incubated for 24 hrs by crystal violet staining based microplate reader assay", "type": "functional"}, "[9]": {"test_system": "Cell membrane", "assay": "Induction of cell membrane damage in Staphylococcus aureus ATCC 43300 at 0.5 times MIC after 90 mins by confocal laser scanning microscopy analysis", "type": "subcellular"}, "[10]": {"test_system": "Staphylococcus aureus", "assay": "Synergistic antimicrobial activity against Staphylococcus aureus ATCC 43300 assessed as FICI at 2 times MIC after 24 hrs in presence of 64 ug/ml kanamycin by checkerboard assay", "type": "functional"}, "[11]": {"test_system": "Staphylococcus aureus", "assay": "Antibacterial activity against methicillin resistant Staphylococcus aureus ATCC48966 assessed as reduction in microbial growth after 16 to 18 hrs by microbroth dilution method", "type": "functional", "conditions": "time 16-18 hrs"}, "[12]": {"test_system": "Staphylococcus aureus", "assay": "Antibacterial activity against methicillin resistant Staphylococcus aureus ATCC515992 assessed as reduction in microbial growth after 16 to 18 hrs by microbroth dilution method", "type": "functional", "conditions": "time 16-18 hrs"}, "[13]": {"test_system": "Staphylococcus aureus", "assay": "Synergistic antimicrobial activity against Staphylococcus aureus ATCC 43300 assessed as FICI at 0.5 times MIC after 24 hrs in presence of 128 ug/ml kanamycin by checkerboard assay", "type": "functional"}, "[14]": {"test_system": "Cell membrane", "assay": "Induction of cell membrane depolarization in methicillin resistant Staphylococcus aureus ATCC 43300 measured after 60 mins by DiOC5 dye based flow analyzer"}, "[15]": {"test_system": "Cell membrane", "assay": "Induction of cell membrane permeabilization in methicillin resistant Staphylococcus aureus ATCC 43300 assessed as fluorescence intensity at 0.5 to 2 times of MIC measured after 30 mins by propidium iodide staining based fluorescence assay", "type": "subcellular"}, "[16]": {"assay": "Toxicity in BALB/c mouse infected with methicillin-resistant Staphylococcus aureus ATCC 43300 assessed as damage in lung at 50 to 200 mg/kg, sc administered every 24 hrs for 4 days by H&E staining based light microscopic analysis", "type": "organism-based", "conditions": "in vivo, dose 50-200 mg/kg"}, "[17]": {"test_system": "Staphylococcus aureus", "assay": "Antibacterial activity against methicillin resistant Staphylococcus aureus ATCC 43300 persisters assessed as reduction in colony formation at 8 ug/ml incubated for 2 hrs by colony counting method", "type": "functional, organism-based", "conditions": "dose 8.0 µg/ml"}, "[18]": {"test_system": "Cell membrane", "assay": "Induction of cell membrane damage in methicillin resistant Staphylococcus aureus ATCC 43300 assessed as increase in ATP leakage […] at 4 times MIC measured every 30 mins for 6 hrs by Bactiter-glo assay"}, "[19]": {"test_system": "Staphylococcus aureus", "assay": "Antibacterial activity against methicillin resistant Staphylococcus aureus ATCC 62202 assessed as reduction in microbial growth after 16 to 18 hrs by microbroth dilution method", "type": "functional", "conditions": "time 16-18 hrs"}, "[20]": {"test_system": "Cell membrane", "assay": "Induction of cell membrane damage in methicillin resistant Staphylococcus aureus ATCC 43300 assessed as increase in ATP leakage […] at 1 times MIC measured every 30 mins for 6 hrs by Bactiter-glo assay"}, "[21]": {"assay": "Toxicity in BALB/c mouse infected with methicillin-resistant Staphylococcus aureus ATCC 43300 assessed as damage in heart at 50 to 200 mg/kg, sc administered every 24 hrs for 4 days by H&E staining based light microscopic analysis", "type": "organism-based", "conditions": "in vivo, dose 50-200 mg/kg"}, "[22]": {"test_system": "Staphylococcus aureus", "assay": "Antibacterial activity against Staphylococcus aureus ATCC 25923 assessed as reduction in microbial growth after 16 to 18 hrs by microbroth dilution method", "type": "functional", "conditions": "time 16-18 hrs"}, "[23]": {"test_system": "Staphylococcus aureus", "assay": "Antibacterial activity against methicillin resistant Staphylococcus aureus ATCC49800 assessed as reduction in microbial growth after 16 to 18 hrs by microbroth dilution method", "type": "functional", "conditions": "time 16-18 hrs"}, "[24]": {"assay": "Toxicity in BALB/c mouse infected with methicillin-resistant Staphylococcus aureus ATCC 43300 assessed as damage in spleen at 50 to 200 mg/kg, sc administered every 24 hrs for 4 days by H&E staining based light microscopic analysis", "type": "organism-based", "conditions": "in vivo, dose 50-200 mg/kg"}, "[25]": {"test_system": "Staphylococcus aureus", "assay": "Antibacterial activity against methicillin resistant Staphylococcus aureus ATCC 43300 persisters assessed as reduction in colony formation at 8 ug/ml incubated for 8 hrs by colony counting method", "type": "functional, organism-based", "conditions": "dose 8.0 µg/ml"}, "[26]": {"test_system": "Staphylococcus aureus", "assay": "Antibacterial activity against methicillin resistant Staphylococcus aureus ATCC49008 assessed as reduction in microbial growth after 16 to 18 hrs by microbroth dilution method", "type": "functional", "conditions": "time 16-18 hrs"}, "[27]": {"test_system": "Staphylococcus aureus", "assay": "Synergistic antimicrobial activity against Staphylococcus aureus ATCC 43300 assessed as FICI at 0.5 times MIC after 24 hrs in presence of 16 ug/ml gentamicin by checkerboard assay", "type": "functional"}, "[28]": {"test_system": "Cell membrane", "assay": "Induction of cell membrane damage in Staphylococcus aureus ATCC 43300 at 1 times MIC after 90 mins by confocal laser scanning microscopy analysis"}, "[29]": {"test_system": "L02", "assay": "Cytotoxicity against human L02 cells assessed as cell viability at 10 ug/ml measured after 24 hrs by MTT assay", "type": "cell-based", "conditions": "l02, 24 h, dose 10 µg/ml"}, "[30]": {"test_system": "Staphylococcus aureus", "assay": "Antibacterial activity against methicillin resistant Staphylococcus aureus ATCC 43300 persisters assessed as reduction in number of bacteria at 4 times MIC incubated for 4 hrs by colony counting method", "type": "functional, organism-based"}, "[31]": {"test_system": "Staphylococcus aureus", "assay": "Antibacterial activity against methicillin resistant Staphylococcus aureus ATCC 43300 assessed as reduction in microbial growth after 16 to 18 hrs by microbroth dilution method", "type": "functional", "conditions": "time 16-18 hrs"}, "[32]": {"test_system": "Enterococcus faecalis", "assay": "Antibacterial activity against Enterococcus faecalis ATCC29212 assessed as reduction in microbial growth after 16 to 18 hrs by microbroth dilution method", "type": "functional", "conditions": "ATCC 29212, time 16-18 hrs"}, "[33]": {"test_system": "Staphylococcus aureus", "assay": "Antibacterial activity against methicillin resistant Staphylococcus aureus ATCC48073 assessed as reduction in microbial growth after 16 to 18 hrs by microbroth dilution method", "type": "functional", "conditions": "time 16-18 hrs"}, "[34]": {"test_system": "Staphylococcus aureus", "assay": "Synergistic antimicrobial activity against Staphylococcus aureus ATCC 43300 assessed as FICI at 0.5 times MIC after 24 hrs in presence of 64 ug/ml piperacillin by checkerboard assay", "type": "functional"}},
  "note": "Active and inactive are the calls of the source. The rule behind the calls is not given here.",
  "data": [
    {"smiles": "CC(C)=CCc1c(OCCF)cc(/C=C/c2ccc(F)cc2)c(C(=O)O)c1O", "values": [
      {"measurement": "MIC", "setting": "[1]", "value": 4, "unit": "µg/mL"},
      {"measurement": "fractional inhibitory concentration index (FICI)", "setting": "[2]", "value": 0.315},
      {"measurement": "Activity", "setting": "[3]", "value": "Non-Toxic"},
      {"measurement": "Activity", "setting": "[4]", "value": "Active"},
      {"measurement": "Activity", "setting": "[5]", "value": "Non-Toxic"},
      {"measurement": "Activity", "setting": "[6]", "value": "Active"},
      {"measurement": "MIC", "setting": "[7]", "value": "> 32", "unit": "µg/mL"},
      {"measurement": "inhibition (INH)", "setting": "[8]", "value": 50, "unit": "%"},
      {"measurement": "Activity", "setting": "[9]", "value": "Active"},
      {"measurement": "fractional inhibitory concentration index (FICI)", "setting": "[10]", "value": 1},
      {"measurement": "MIC", "setting": "[11]", "value": 4, "unit": "µg/mL"},
      {"measurement": "MIC", "setting": "[12]", "value": 4, "unit": "µg/mL"},
      {"measurement": "fractional inhibitory concentration index (FICI)", "setting": "[13]", "value": 1.125},
      {"measurement": "Activity", "setting": "[14]", "value": "Dose-Dependent Effect"},
      {"measurement": "Activity", "setting": "[15]", "value": "Dose-Dependent Effect"},
      {"measurement": "Activity", "setting": "[16]", "value": "Non-Toxic"},
      {"measurement": "Activity", "setting": "[17]", "value": "Active"},
      {"measurement": "Activity", "setting": "[18]", "value": "Active"},
      {"measurement": "MIC", "setting": "[19]", "value": 4, "unit": "µg/mL"},
      {"measurement": "Activity", "setting": "[20]", "value": "Active"},
      {"measurement": "Activity", "setting": "[21]", "value": "Non-Toxic"},
      {"measurement": "MIC", "setting": "[22]", "value": 2, "unit": "µg/mL"},
      {"measurement": "MIC", "setting": "[23]", "value": 4, "unit": "µg/mL"},
      {"measurement": "Activity", "setting": "[24]", "value": "Non-Toxic"},
      {"measurement": "Activity", "setting": "[25]", "value": "Active"},
      {"measurement": "MIC", "setting": "[26]", "value": 4, "unit": "µg/mL"},
      {"measurement": "fractional inhibitory concentration index (FICI)", "setting": "[27]", "value": 1.125},
      {"measurement": "Activity", "setting": "[28]", "value": "Active"},
      {"measurement": "Activity", "setting": "[29]", "value": "Toxic"},
      {"measurement": "Activity", "setting": "[30]", "value": "Active"},
      {"measurement": "MIC", "setting": "[31]", "value": 4, "unit": "µg/mL"},
      {"measurement": "MIC", "setting": "[32]", "value": "> 32", "unit": "µg/mL"},
      {"measurement": "MIC", "setting": "[33]", "value": 4, "unit": "µg/mL"},
      {"measurement": "fractional inhibitory concentration index (FICI)", "setting": "[34]", "value": 0.25}
    ]}
  ]
}
